The source of these data is ChEMBL document CHEMBL1201862, “PubChem BioAssay data set” (2004).

Active and inactive are the calls of the source.

The target in assay [1] is T1, SUMO-activating enzyme (Homo sapiens, UniProt Q9UBT2). In words: blockers of UBC9-mediated SUMO conjugation – biochemical, AlphaScreen, SUMOylation inhibitor project, confirmation (AID 2018). Type of assay: functional.
For assay [2], the target named is T2, Voltage-gated N-type calcium channel alpha-1B subunit/Amyloid beta A4 precursor protein-binding family A member 1 (Homo sapiens, UniProt Q00975+Q02410). Type of assay: protein assay.
Assay [3] concerns the target T1, SUMO-activating enzyme. Nature of the assay: blockers of SAE1/SAE2–UBC9 SUMO transfer – biochemical, HTRF, uHTS, primary screen (AID 2006). Type of assay: protein-complex assay.
Assay [4] addresses T2, Voltage-gated N-type calcium channel alpha-1B subunit/Amyloid beta A4 precursor protein-binding family A member 1. Type of assay: protein assay. This is another data set of the same source.
Assay [5] addresses Mannose-6-phosphate isomerase (Homo sapiens, UniProt P34949). Nature of the assay: MPI inhibition at elevated mannose 6-phosphate – biochemical, fluorescence intensity, high mannose 6-phosphate, primary screen (AID 1220).
Assay [6] addresses Glucose-6-phosphate 1-dehydrogenase (Homo sapiens, UniProt P11413). Nature of the assay: inhibition of Homo sapiens G6PD, dose series – biochemical, fluorescence, selectivity assay for P. falciparum G6PD inhibitor project, dose response (AID 504792). Type of assay: functional.
Assay [7] deals with T3, Apoptotic protease-activating factor 1 (Homo sapiens, UniProt O14727).
T3 sequence (O14727 whole entry): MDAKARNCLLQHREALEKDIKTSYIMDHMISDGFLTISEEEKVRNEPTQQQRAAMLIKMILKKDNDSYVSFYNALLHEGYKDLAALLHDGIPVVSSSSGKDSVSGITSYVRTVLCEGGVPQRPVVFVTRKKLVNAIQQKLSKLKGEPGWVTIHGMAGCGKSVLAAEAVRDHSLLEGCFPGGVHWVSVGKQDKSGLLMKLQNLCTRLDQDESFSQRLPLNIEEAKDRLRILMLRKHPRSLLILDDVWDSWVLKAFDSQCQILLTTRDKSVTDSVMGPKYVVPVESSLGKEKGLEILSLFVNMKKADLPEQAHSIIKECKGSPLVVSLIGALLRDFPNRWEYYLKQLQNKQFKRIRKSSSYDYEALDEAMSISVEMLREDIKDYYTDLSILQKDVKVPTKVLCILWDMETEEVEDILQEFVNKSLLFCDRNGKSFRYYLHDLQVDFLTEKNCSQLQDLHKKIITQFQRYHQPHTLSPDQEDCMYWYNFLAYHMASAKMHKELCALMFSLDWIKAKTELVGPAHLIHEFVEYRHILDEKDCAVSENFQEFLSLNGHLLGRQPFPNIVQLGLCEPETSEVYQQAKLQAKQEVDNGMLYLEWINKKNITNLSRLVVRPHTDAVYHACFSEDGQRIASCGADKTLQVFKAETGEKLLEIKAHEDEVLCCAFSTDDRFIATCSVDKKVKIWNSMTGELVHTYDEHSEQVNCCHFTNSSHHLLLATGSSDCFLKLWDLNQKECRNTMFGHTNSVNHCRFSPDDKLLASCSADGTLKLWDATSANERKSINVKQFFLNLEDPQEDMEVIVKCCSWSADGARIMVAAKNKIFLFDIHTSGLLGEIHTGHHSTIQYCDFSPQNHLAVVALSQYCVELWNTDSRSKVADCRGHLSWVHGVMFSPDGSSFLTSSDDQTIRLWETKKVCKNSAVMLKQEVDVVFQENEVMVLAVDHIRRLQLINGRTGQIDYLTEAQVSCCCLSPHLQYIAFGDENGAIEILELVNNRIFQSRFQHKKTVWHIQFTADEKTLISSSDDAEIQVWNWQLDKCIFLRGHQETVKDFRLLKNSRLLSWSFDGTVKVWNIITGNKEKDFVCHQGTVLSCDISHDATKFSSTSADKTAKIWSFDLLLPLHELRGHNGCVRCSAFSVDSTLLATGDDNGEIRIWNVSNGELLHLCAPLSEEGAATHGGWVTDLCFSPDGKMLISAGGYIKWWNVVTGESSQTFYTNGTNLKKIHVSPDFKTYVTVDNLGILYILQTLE
The class given is functional.

The target of assay [8] is T4, Polyadenylate-binding protein 1 (Homo sapiens, UniProt P11940). In words: MLLE binding blockers, Cy5 peptide tracer – biochemical, fluorescence polarization, Cy5-PAM2 peptide, secondary, miRNA deadenylation inhibitor project, dose response (AID 602260). The class given is functional. Conditions: read-out: IC50_Mean.
For assay [9], the target named is T4, Polyadenylate-binding protein 1. In words: MLLE domain peptide-binding blockers, IC50 – biochemical, fluorescence polarization, FITC-PAM2 peptide, dose response (AID 602259). Type of assay: functional. The following applies: read-out: IC50_Mean.
A short description of another assay: cells. The following applies: HEK293.
Assay [10] in a line: cytotoxicity in MITF-independent A375 cells – cell-based, CellTiter-Glo luminescence, dry powder, set 4, counter-screen for MITF inhibitor project, dose response (AID 624364).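 Note: A375 melanoma cells are MITF independent so this is a counter screen.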 The class given is functional. Conditions: A-375.
Assay [11] can be described thus: mouse embryonic fibroblast toxicity – cell-based, plate reader, dry powder, set 2, cytotoxicity control, dose response (AID 652280). Conditions: NIH3T3. The class given is functional.
The nature of assay [12]: T. cruzi growth inhibition in host cells, dose response, cell-based, plate reader, dry powder, set 2 (AID 652275). The class given is functional.
Assay [13] in a line: inhibitors of non-replicating M. tuberculosis, dose response, luciferase, dry powder (AID 651619). Type of assay: functional. The following applies: Mycobacterium tuberculosis.
Assay [14] is described as follows: inhibitors of non-replicating M. tuberculosis, dose response, luciferase, dry powder (AID 651620). The class given is functional. The following applies: Mycobacterium tuberculosis.

T1 sequence (Q9UBE0 whole entry): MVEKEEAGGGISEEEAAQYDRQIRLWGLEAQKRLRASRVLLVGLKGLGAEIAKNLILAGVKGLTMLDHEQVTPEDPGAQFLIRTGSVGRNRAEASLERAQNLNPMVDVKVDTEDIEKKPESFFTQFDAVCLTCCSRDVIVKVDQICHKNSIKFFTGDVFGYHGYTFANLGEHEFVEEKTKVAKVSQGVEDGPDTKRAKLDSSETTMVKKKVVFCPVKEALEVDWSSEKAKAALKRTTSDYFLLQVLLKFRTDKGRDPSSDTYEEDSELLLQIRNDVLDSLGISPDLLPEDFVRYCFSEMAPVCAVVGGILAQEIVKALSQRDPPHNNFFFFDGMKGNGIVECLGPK
T1 sequence (Q9UBT2 whole entry): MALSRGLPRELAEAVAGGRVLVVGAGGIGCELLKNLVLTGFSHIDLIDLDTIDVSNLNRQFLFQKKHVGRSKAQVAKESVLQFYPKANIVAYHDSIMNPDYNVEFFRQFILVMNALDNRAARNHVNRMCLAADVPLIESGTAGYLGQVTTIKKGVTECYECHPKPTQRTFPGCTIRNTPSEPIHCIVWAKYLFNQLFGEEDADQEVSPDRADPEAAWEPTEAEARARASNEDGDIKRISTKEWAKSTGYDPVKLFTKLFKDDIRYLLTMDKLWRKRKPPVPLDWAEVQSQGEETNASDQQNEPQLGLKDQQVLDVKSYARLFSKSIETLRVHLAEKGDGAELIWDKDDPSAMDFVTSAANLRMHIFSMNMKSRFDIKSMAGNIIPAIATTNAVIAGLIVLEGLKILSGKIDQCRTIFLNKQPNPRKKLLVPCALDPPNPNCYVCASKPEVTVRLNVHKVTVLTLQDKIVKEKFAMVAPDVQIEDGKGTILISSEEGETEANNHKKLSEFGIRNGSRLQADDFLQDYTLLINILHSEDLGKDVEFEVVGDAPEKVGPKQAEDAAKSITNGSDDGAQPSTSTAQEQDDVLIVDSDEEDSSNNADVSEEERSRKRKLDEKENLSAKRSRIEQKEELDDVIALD
T2 sequence (Q00975 whole entry): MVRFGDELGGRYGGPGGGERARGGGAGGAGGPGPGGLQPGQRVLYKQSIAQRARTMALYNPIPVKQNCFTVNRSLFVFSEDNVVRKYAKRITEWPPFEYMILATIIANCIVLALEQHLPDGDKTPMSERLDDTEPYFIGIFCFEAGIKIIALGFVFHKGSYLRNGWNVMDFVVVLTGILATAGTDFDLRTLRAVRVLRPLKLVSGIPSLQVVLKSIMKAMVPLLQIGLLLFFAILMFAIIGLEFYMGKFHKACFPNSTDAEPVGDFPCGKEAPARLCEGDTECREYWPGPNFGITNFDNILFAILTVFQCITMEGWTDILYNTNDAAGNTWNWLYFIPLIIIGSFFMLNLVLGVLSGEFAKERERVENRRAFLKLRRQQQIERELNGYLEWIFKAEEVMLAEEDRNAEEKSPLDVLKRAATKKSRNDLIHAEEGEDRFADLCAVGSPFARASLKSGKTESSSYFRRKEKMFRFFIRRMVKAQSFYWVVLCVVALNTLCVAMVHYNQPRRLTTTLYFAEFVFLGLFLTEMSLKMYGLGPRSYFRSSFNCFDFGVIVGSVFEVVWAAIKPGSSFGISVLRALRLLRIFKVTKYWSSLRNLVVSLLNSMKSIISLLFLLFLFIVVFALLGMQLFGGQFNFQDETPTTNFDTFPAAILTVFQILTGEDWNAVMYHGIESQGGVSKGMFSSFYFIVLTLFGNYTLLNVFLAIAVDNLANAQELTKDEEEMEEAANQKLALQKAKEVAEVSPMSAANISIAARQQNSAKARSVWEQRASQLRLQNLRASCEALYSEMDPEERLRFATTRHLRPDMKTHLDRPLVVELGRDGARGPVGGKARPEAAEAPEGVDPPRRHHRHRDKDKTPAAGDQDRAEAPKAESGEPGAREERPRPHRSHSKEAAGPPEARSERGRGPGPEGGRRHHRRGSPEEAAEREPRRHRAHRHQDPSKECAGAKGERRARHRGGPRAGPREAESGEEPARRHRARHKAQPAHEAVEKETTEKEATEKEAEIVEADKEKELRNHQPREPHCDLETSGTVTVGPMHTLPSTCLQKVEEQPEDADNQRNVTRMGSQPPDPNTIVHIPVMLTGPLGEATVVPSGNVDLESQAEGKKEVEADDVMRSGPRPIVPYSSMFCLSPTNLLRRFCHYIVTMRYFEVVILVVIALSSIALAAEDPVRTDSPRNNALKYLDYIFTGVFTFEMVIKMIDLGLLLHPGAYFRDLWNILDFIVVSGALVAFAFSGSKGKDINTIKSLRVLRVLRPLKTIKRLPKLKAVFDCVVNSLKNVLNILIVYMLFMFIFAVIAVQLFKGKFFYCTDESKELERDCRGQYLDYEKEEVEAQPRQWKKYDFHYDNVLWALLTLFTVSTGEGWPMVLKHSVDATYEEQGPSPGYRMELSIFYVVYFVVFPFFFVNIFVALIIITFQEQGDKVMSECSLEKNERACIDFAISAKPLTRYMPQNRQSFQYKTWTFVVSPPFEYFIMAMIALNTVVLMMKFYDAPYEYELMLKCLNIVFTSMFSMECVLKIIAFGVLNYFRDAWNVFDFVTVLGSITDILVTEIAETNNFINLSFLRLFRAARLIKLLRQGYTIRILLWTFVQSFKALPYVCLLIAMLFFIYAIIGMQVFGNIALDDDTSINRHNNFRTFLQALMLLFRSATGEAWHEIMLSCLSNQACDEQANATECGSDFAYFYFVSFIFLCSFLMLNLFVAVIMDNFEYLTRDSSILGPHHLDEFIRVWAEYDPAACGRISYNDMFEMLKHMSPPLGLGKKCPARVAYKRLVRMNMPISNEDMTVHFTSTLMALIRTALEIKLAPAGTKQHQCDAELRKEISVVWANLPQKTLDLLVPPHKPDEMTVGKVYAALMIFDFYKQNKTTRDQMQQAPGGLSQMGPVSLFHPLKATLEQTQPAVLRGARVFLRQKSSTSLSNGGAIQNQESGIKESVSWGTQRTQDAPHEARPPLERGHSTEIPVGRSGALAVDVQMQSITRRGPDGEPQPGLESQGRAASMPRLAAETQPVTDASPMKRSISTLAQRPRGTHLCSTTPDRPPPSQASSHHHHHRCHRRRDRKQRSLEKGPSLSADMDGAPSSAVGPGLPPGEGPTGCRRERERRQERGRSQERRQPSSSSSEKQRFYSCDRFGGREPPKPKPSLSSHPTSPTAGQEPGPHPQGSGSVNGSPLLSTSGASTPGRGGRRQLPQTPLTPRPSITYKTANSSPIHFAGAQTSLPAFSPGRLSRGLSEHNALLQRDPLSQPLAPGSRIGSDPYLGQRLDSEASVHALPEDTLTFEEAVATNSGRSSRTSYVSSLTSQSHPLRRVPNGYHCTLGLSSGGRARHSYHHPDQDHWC
T2 sequence (Q02410 whole entry): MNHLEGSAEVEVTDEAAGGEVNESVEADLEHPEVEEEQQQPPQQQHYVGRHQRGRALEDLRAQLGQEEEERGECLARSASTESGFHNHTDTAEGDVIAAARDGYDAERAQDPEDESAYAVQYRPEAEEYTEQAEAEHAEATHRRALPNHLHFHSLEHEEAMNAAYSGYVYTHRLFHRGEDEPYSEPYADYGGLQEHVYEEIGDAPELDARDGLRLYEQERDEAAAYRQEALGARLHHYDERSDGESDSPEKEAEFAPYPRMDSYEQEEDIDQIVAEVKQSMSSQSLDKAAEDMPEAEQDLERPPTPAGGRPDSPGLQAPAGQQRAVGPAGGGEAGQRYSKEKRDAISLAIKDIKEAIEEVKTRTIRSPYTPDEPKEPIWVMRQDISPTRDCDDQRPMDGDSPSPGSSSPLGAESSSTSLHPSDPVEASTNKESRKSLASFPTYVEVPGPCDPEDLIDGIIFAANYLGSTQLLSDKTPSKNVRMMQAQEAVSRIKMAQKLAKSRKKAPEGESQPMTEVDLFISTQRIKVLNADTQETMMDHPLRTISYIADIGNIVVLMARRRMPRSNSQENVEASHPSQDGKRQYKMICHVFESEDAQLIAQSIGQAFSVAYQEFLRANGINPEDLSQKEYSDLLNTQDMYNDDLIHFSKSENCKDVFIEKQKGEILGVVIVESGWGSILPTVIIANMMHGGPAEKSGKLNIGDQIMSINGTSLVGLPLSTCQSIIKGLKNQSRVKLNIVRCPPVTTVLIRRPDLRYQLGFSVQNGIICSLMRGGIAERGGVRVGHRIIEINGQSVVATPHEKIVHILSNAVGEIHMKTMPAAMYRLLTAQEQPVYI
T4 sequence (P11940 whole entry, the tested form may be a part): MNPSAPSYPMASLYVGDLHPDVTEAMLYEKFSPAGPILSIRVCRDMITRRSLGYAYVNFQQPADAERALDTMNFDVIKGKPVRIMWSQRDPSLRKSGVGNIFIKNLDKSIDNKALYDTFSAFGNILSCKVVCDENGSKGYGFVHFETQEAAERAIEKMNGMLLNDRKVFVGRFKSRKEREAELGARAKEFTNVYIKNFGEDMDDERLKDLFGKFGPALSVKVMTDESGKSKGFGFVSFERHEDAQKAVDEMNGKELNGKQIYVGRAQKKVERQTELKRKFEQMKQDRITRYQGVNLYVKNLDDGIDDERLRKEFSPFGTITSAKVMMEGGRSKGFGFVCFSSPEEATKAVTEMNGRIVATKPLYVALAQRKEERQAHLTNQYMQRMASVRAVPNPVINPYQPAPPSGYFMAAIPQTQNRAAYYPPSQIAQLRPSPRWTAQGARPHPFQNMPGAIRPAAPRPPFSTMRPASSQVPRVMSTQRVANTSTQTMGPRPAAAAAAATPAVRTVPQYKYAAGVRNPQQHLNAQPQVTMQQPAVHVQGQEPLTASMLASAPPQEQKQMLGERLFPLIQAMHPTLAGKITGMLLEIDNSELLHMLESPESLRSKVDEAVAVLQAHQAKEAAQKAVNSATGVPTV

As to `CCOC(=O)c1c2ccc(OCC(=O)NN)cc2n2ccccc12`, the IC50 on SUMO-activating enzyme [1] is 6.82 µM (active); in assay [2], 2.73 µM (active); on SUMO-activating enzyme [3], 1.64 µM (active); in [4], 40.2 µM (active); in assay [5] it was > 50 µM (not active); in [6] it was 62.8 µM (inactive). Moreover, the IC50 is 18.5 µM (active) in [7], > 66 µM (inactive) in assay [8] and 33.6 µM (inactive) in assay [9]. In the assay “cells”, the AC50 is > 52 µM (inactive).
With `C=CCNC1=C(NC(=O)c2ccccc2)C(=O)c2ccccc2C1=O`, the AC50 in [10] is > 70 µM (inactive).
For the compound `CC(C)(C)[S@@+]([O-])N1Cc2cc(C(=O)NCc3ccc4c(c3)OCO4)nc(-c3cccc(-c4ccncc4)c3)c2[C@H]1CCO`, the figures for the AC50 in assay [11] and in [12] were 8.56 µM (active) and 0.341 µM (active), respectively.
Turning to `[N-]=[N+]=NCCOCCNC(=O)c1ccc(C[S+]([O-])c2nnc(-c3ccc(Cl)cc3)o2)nc1` (stereo not given), the IC90 in assay [13] and in assay [14] was 16 µM (active) in each case.
